The values that follow come from PubChem BioAssay (NCI).

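Assay format: 96-well plates, 48-hour exposure. GI50 is the concentration that inhibits growth by half. At the TGI there is no net growth.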

Test systems include CAKI-1 renal; OVCAR-8 ovarian; SW-620 colon; HCT-116 colon; 786-0 renal; EKVX NSCLC; TK-10 renal; M14 melanoma; HT29 colon; OVCAR-5 ovarian.
Assay in all cases: NCI tumour cell line growth inhibition, 48 h

Consider `Cc1c2cccnc2c(C)c2c1c1cc(CO)ccc1n2C`, for which the GI50 was 2.06 µM with CAKI-1 renal; 1.55 µM in the assay with OVCAR-8 ovarian; 1.25 µM with SW-620 colon; 0.42 µM in the assay with HCT-116 colon; 2.17 µM in the assay on 786-0 renal; 1.4 µM in the assay on EKVX NSCLC. In addition, the GI50 in the assay with TK-10 renal is 2.57 µM; in the assay on M14 melanoma, 2.49 µM; with HT29 colon, 1.92 µM; with OVCAR-5 ovarian, 0.618 µM. Moreover, the TGI in the assay with CAKI-1 renal was determined as 10.5 µM; with OVCAR-8 ovarian, 18.1 µM; in the assay on SW-620 colon, 14.5 µM; with HCT-116 colon it was 3.26 µM; in the assay with 786-0 renal, 12.7 µM; in the assay on EKVX NSCLC, 9.86 µM. In addition, the TGI was 7.77 µM in the assay on TK-10 renal, 10.4 µM in the assay on M14 melanoma, 10.6 µM in the assay on HT29 colon and 8.78 µM in the assay on OVCAR-5 ovarian.

As to `COc1ccc2c(c1)C(C)Cc1c(Cl)ncnc1N2C` (stereo not given), the GI50 in the assay on CAKI-1 renal is 1.53 µM; with OVCAR-8 ovarian, 0.463 µM; in the assay on SW-620 colon, 0.377 µM; with HCT-116 colon it was 0.434 µM; in the assay on 786-0 renal, 0.309 µM; in the assay with EKVX NSCLC it was 0.44 µM. The GI50 in the assay on TK-10 renal was 1.06 µM; in the assay on M14 melanoma, 0.345 µM; in the assay with HT29 colon it was 0.33 µM; in the assay on OVCAR-5 ovarian it was 0.643 µM. The TGI is more than 100 µM in the assay with CAKI-1 renal; 25.2 µM in the assay with OVCAR-8 ovarian; 17.8 µM with SW-620 colon; 4.56 µM in the assay on HCT-116 colon; 5.45 µM in the assay on 786-0 renal; 29.9 µM in the assay on EKVX NSCLC. Moreover, the TGI is 18.8 µM in the assay with TK-10 renal, 7.99 µM in the assay on M14 melanoma, 8.13 µM in the assay on HT29 colon and more than 100 µM in the assay with OVCAR-5 ovarian.

Consider `COC(=O)C(C(=O)C(=O)Nc1cccc(OC)c1)c1cnc2ccccc2n1` (stereo not given), for which the TGI in the assay on CAKI-1 renal, in the assay on OVCAR-8 ovarian, in the assay on SW-620 colon, in the assay on HCT-116 colon, in the assay on 786-0 renal and with EKVX NSCLC was more than 100 µM throughout. In addition, the TGI in the assay with TK-10 renal, with M14 melanoma, in the assay on HT29 colon and in the assay on OVCAR-5 ovarian was more than 100 µM each time.

As to `NC(=NCCCOc1ccc(Cl)cc1)Nc1ccc(C(F)(F)F)cc1`, the GI50 with CAKI-1 renal was 2.48 µM; in the assay with OVCAR-8 ovarian it was 2.18 µM; in the assay with SW-620 colon, 1.99 µM; in the assay on HCT-116 colon, 1.32 µM; in the assay on 786-0 renal it was 1.65 µM; in the assay with EKVX NSCLC, 2.51 µM. Further, the GI50 was 1.73 µM in the assay with TK-10 renal, 1.69 µM in the assay with M14 melanoma, 1.88 µM in the assay with HT29 colon and 2.67 µM in the assay with OVCAR-5 ovarian. The TGI in the assay with CAKI-1 renal is 9.03 µM; in the assay with OVCAR-8 ovarian, 6.05 µM; in the assay on SW-620 colon, 5.99 µM; in the assay on HCT-116 colon, 2.74 µM; with 786-0 renal, 4.32 µM; in the assay with EKVX NSCLC, 8.65 µM. The TGI came to 3.66 µM in the assay on TK-10 renal, 3.46 µM in the assay with M14 melanoma, 5.55 µM in the assay with HT29 colon and 13.7 µM with OVCAR-5 ovarian.

As to `CCCCCCCCCC/C=C/CC(=O)SCCNC(=O)CCNC(=O)[C@@H](O)C(C)(C)COP(=O)(O)OP(=O)(O)OCC1OC(n2cnc3c(N)ncnc32)C(O)C1OP(=O)(O)O` (stereo not given in full), the TGI with CAKI-1 renal, in the assay with OVCAR-8 ovarian, in the assay with SW-620 colon, with HCT-116 colon, in the assay on 786-0 renal and in the assay on EKVX NSCLC was more than 10 µM each time. Further, the TGI in the assay with TK-10 renal, in the assay on M14 melanoma, in the assay on HT29 colon and with OVCAR-5 ovarian was more than 10 µM throughout.

As for `COC(=O)C1=C(C)N(NC(=O)c2ccccc2)C(C)(O)C12CCOC2=O` (stereo not given), the TGI in the assay with CAKI-1 renal was more than 100 µM; with OVCAR-8 ovarian it was more than 100 µM; with SW-620 colon, more than 100 µM; with HCT-116 colon, more than 100 µM; in the assay on 786-0 renal, 2.68 µM; in the assay with EKVX NSCLC it was more than 100 µM. In addition, the TGI in the assay with TK-10 renal, in the assay on M14 melanoma, in the assay on HT29 colon and in the assay on OVCAR-5 ovarian was more than 100 µM in each case.

For the compound `Cc1ccc(SC(C)/C=C/NNC2=NC(c3ccccc3)C(c3ccccc3)=NN2)cc1` (stereo not given), the TGI in the assay on CAKI-1 renal is 46.6 µM; in the assay on OVCAR-8 ovarian, more than 100 µM; with SW-620 colon, more than 100 µM; in the assay with HCT-116 colon, more than 100 µM; in the assay with 786-0 renal, more than 100 µM; in the assay with EKVX NSCLC it was more than 100 µM. The TGI in the assay on TK-10 renal was more than 100 µM; in the assay on M14 melanoma it was more than 100 µM; with HT29 colon, 27.3 µM; with OVCAR-5 ovarian, 89.1 µM.
